Assay results as given in US20120065126A1, “Pharmaceutical Compositions Containing Antifungal Peptides” (BASF SE, priority 2009, published 2012).

Experiments:
[1] = system: Malassezia furfur; assay: Incubation times between 5 minutes and 1 hour (CFU); format: cell-based
Description: The studies described hereinafter were conducted on the Malassezia furfur strain DSM 6170.
For this purpose, the concentrations 100 μM, 200 μM and 500 μM of P18 peptide and of zinc pyrithione as a control substance were used in the experiment. The experiments were conducted as follows:
The growth test was effected as follows: a shake culture containing M472 Pityrosporum medium was inoculated with M. furfur and incubated with shaking at 30° C. and 200 rpm overnight.
A 96-well microtiter plate was filled with 100 μl per well of M472 Pityrosporum medium and inoculated with M. furfur suspension from the overnight culture. The M. furfur suspension was adjusted at the start of the experiment to an optical density, measured at 600 nm, of 0.1.
The following growth was compared: • M. furfur suspension and addition of P18 peptide with a final concentration of 100 μM, plating after 5 minutes, 10 minutes, 20 minutes and 60 minutes • M. furfur suspension and addition of P18 peptide with a final concentration of 200 μM, plating after 5 minutes, 10 minutes, 20 minutes and 60 minutes • M. furfur suspension and addition of P18 peptide with a final concentration of 500 μM, plating after 5 minutes, 10 minutes, 20 minutes and 60 minutes • M. furfur suspension and addition of zinc pyrithione with a final concentration of 100 μM, plating after 5 minutes, 10 minutes, 20 minutes and 60 minutes • M. furfur suspension and addition of zinc pyrithione with a final concentration of 200 μM, plating after 5 minutes, 10 minutes, 20 minutes and 60 minutes • M. furfur suspension and addition of zinc pyrithione with a final concentration of 500 μM, plating after 5 minutes, 10 minutes, 20 minutes and 60 minutes
The microtiter plate was incubated with shaking at 30°.
After the incubation times specified, the colony forming units (CFU) were determined by streaking 50 μl of each of the suspensions and, after incubation over the course of 6 days, counting the colonies. The CFU was determined in order to rule out any influence of the biphasic medium, and also the growth form of M. furfur, on the optical density. The experiments were repeated independently of one another.

[2] = system: Trichophyton rubrum (DSM21146); assay: Short-term effect (CFU); format: cell-based
Description: For this purpose, the procedure was as follows.
MEP growth medium according to DSMZ:
30 g of malt extract (Becton, Dickinson and Company, Sparks, USA) 3 g of soya peptone (Becton, Dickinson and Company, Sparks, USA) make up to 1 liter, set pH 5.6
The growth test was effected as follows: an agar plate on which the Trichophyton rubrum culture had grown was rinsed with 5 ml of MEP medium.
1.5 ml reaction vessels were each filled with 1 ml of MEP medium and inoculated with 10 μl of the T. rubrum suspension. The concentration of the peptide solution in water or ZPT solution (zinc pyrithione, >96%, Sigma Aldrich) dissolved in DMSO was 2% (w/w).
The following growth was compared: • T. rubrum suspension and addition of P18 peptide with a final concentration in the 1.5 ml reaction vessel of 50 ppm after 5 minutes, 10 minutes, 20 minutes and 60 minutes • T. rubrum suspension and addition of P18 peptide with a final concentration in the 1.5 ml reaction vessel of 100 ppm after 5 minutes, 10 minutes, 20 minutes and 60 minutes • T. rubrum suspension and addition of P18 peptide with a final concentration in the 1.5 ml reaction vessel of 200 ppm after 5 minutes, 10 minutes, 20 minutes and 60 minutes • T. rubrum suspension and addition of P18 peptide with a final concentration in the 1.5 ml reaction vessel of 500 ppm after 5 minutes, 10 minutes, 20 minutes and 60 minutes • T. rubrum suspension and addition of P18 peptide with a final concentration in the 1.5 ml reaction vessel of 1000 ppm after 5 minutes, 10 minutes, 20 minutes and 60 minutes • T. rubrum suspension and addition of ZPT with a final concentration in the 1.5 ml reaction vessel of 50 ppm after 5 minutes, 10 minutes, 20 minutes and 60 minutes • T. rubrum suspension and addition of ZPT with a final concentration in the 1.5 ml reaction vessel of 100 ppm after 5 minutes, 10 minutes, 20 minutes and 60 minutes • T. rubrum suspension and addition of ZPT with a final concentration in the 1.5 ml reaction vessel of 200 ppm after 5 minutes, 10 minutes, 20 minutes and 60 minutes • T. rubrum suspension and addition of ZPT with a final concentration in the 1.5 ml reaction vessel of 500 ppm after 5 minutes, 10 minutes, 20 minutes and 60 minutes • T. rubrum suspension and addition of ZPT with a final concentration in the 1.5 ml reaction vessel of 1000 ppm after 5 minutes, 10 minutes, 20 minutes and 60 minutes
The 1.5 ml reaction vessels were incubated at room temperature.
After the incubation times specified, the colony forming units (CFU) were determined by streaking 1 μl of each of the suspensions diluted with 20 μl of MEP medium and, after incubation for 2 days, counting the colonies.

Substance	Colony forming units after incubation time specified ([1]; 100 μM, 5 minutes)	Colony forming units after incubation time specified ([1]; 100 μM, 10 minutes)	Colony forming units after incubation time specified ([1]; 100 μM, 20 minutes)	Colony forming units after incubation time specified ([1]; 100 μM, 60 minutes)	Colony forming units after incubation time specified ([1]; 200 μM, 5 minutes)	Colony forming units after incubation time specified ([1]; 200 μM, 10 minutes)	Colony forming units after incubation time specified ([1]; 200 μM, 20 minutes)	Colony forming units after incubation time specified ([1]; 200 μM, 60 minutes)	Colony forming units after incubation time specified ([1]; 500 μM, 5 minutes)	Colony forming units after incubation time specified ([1]; 500 μM, 10 minutes)	Colony forming units after incubation time specified ([1]; 500 μM, 20 minutes)	Colony forming units after incubation time specified ([1]; 500 μM, 60 minutes)	Colony forming units after the incubation time specified ([2]; 50 ppm, 5 minutes)	Colony forming units after the incubation time specified ([2]; 50 ppm, 10 minutes)	Colony forming units after the incubation time specified ([2]; 50 ppm, 20 minutes)	Colony forming units after the incubation time specified ([2]; 50 ppm, 60 minutes)	Colony forming units after the incubation time specified ([2]; 100 ppm, 5 minutes)	Colony forming units after the incubation time specified ([2]; 100 ppm, 10 minutes)	Colony forming units after the incubation time specified ([2]; 100 ppm, 20 minutes)	Colony forming units after the incubation time specified ([2]; 100 ppm, 60 minutes)	other results
H-KWKLFKKIPKFLHLAKKF-NH2 [P18, H-KWKLFKKIPKFLHLAKKF-NH2]	>1000 CFU	>1000 CFU	604 CFU	149 ± 60 CFU	>1000 CFU	>1000 CFU	>1000 CFU	52 ± 16 CFU	>1000 CFU	398 ± 290 CFU	26 ± 6 CFU	1 ± 1 CFU	59 CFU	55 CFU	35 CFU	23 CFU	41 CFU	22 CFU	36 CFU	18 CFU	Colony forming units after the incubation time specified ([2]; 200 ppm, 5 minutes): 32 CFU; Colony forming units after the incubation time specified ([2]; 200 ppm, 10 minutes): 39 CFU; Colony forming units after the incubation time specified ([2]; 200 ppm, 20 minutes): 24 CFU; Colony forming units after the incubation time specified ([2]; 200 ppm, 60 minutes): 5 CFU; Colony forming units after the incubation time specified ([2]; 500 ppm, 5 minutes): 30 CFU; Colony forming units after the incubation time specified ([2]; 500 ppm, 10 minutes): 18 CFU; Colony forming units after the incubation time specified ([2]; 500 ppm, 20 minutes): 9 CFU; Colony forming units after the incubation time specified ([2]; 500 ppm, 60 minutes): 1 CFU; Colony forming units after the incubation time specified ([2]; 1000 ppm, 5 minutes): 17 CFU; Colony forming units after the incubation time specified ([2]; 1000 ppm, 10 minutes): 18 CFU; Colony forming units after the incubation time specified ([2]; 1000 ppm, 20 minutes): 10 CFU; Colony forming units after the incubation time specified ([2]; 1000 ppm, 60 minutes): 2 CFU; Factor of reduction of the living cell count ([2]; cell count 10 times higher (data not shown)): ≤ 2; Factor of reduction of the living cell count ([2]; concentration range studied (50-1000 ppm), first 60 minutes): ≤ 20
zinc pyrithione [ZPT]	>1000 CFU	>1000 CFU	>1000 CFU	>1000 CFU	>1000 CFU	>1000 CFU	>1000 CFU	>1000 CFU	>1000 CFU	>1000 CFU	>1000 CFU	>1000 CFU	44 CFU	51 CFU	51 CFU	55 CFU	38 CFU	54 CFU	50 CFU	48 CFU	Inhibition in words ([2]; 50-1000 ppm, up to 60 minutes): no significant inhibition; Colony forming units after the incubation time specified ([2]; 200 ppm, 5 minutes): 44 CFU; Colony forming units after the incubation time specified ([2]; 200 ppm, 10 minutes): 51 CFU; Colony forming units after the incubation time specified ([2]; 200 ppm, 20 minutes): 56 CFU; Colony forming units after the incubation time specified ([2]; 200 ppm, 60 minutes): 49 CFU; Colony forming units after the incubation time specified ([2]; 500 ppm, 5 minutes): 43 CFU; Colony forming units after the incubation time specified ([2]; 500 ppm, 10 minutes): 47 CFU; Colony forming units after the incubation time specified ([2]; 500 ppm, 20 minutes): 51 CFU; Colony forming units after the incubation time specified ([2]; 500 ppm, 60 minutes): 44 CFU; Colony forming units after the incubation time specified ([2]; 1000 ppm, 5 minutes): 52 CFU; Colony forming units after the incubation time specified ([2]; 1000 ppm, 10 minutes): 62 CFU; Colony forming units after the incubation time specified ([2]; 1000 ppm, 20 minutes): 47 CFU; Colony forming units after the incubation time specified ([2]; 1000 ppm, 60 minutes): 48 CFU
